What all share (assay type): cell-based
One test has as its system Cdsn (corneodesmosine). The test is described as follows: Differential expression by cDNA minichips in NHEK: corneodesmosine (Cdsn). The following applies: normal human epidermal keratinocytes (NHEK), cDNA array. How it is done:
(§1) Analysis of the Differential expression by Minichips:
(§2) In order to study the activity of a product on the formation of the horny layer, the effect of the product on the expression of genes known to be modulated in keratinocytes during their transformation into corneocytes is analyzed.
(§3) The analysis is performed using dedicated minichips, consisting of cDNA membrane arrays known to those skilled in the art for their relationship with re-epithelialization and/or cohesion of the horny layer, especially such as the LEP proteins (late epidermal proteins), corneodesmosines and epidermal growth factor HBEGF (human heparin-binding EGF-like growth factor).
(§4) The cell model used comprises normal human epidermal keratinocytes (NHEK). The keratinocytes are cultured in SFM medium with 0.25 ng/ml EGF and 25 μg/ml of pituitary extract at 37° C. and 5% CO2. The keratinocytes are inoculated in 25 cm^2 dishes and precultured in whole SFM medium, and then placed in EGF-free and pituitary extract-free SFM medium.
(§5) The test products are applied at the non-irritant and non-cytotoxic concentrations defined in a).
(§6) The controls correspond to the same conditions, in the absence of product.
(§7) The cells are then rinsed with PBS and then lysed and the messenger RNA is extracted and purified using the kit Chemagic mRNA Direct kit marketed by Chemagen.
(§8) The RNA of each culture is then reverse-transcripted using a pool of primers corresponding to the cDNAs immobilized on the membranes (probes) and a ^33P-labelled deoxynucleotide triphosphate.
(§9) Multiple cDNA “target” labeled sequences were thus prepared for each culture. These targets were then hybridized, under optimal conditions, with the excess “probe” cDNAs bound to the membranes. […] The membrane analysis was performed using the ImageQuant TL software (Image Analysis, Amersham Biosciences) and the data recorded were then processed on Excel. The differential expression of the various genes following the treatment is thus measured by comparison with the corresponding control.

For another test, the system named is LEP16. The experiment in a line: Differential expression by cDNA minichips in NHEK: LEP16. The settings on record: normal human epidermal keratinocytes (NHEK), cDNA array. How it is done:
as §1, §2, §3, §4, §5, §6, §7, §8, §9

For test [1], the system named is HBEGF (human heparin-binding EGF-like growth factor). The experiment in a line: Differential expression by cDNA minichips in NHEK: HBEGF. The following applies: 1 μg/ml, normal human epidermal keratinocytes (NHEK), cDNA array. The procedure: as §1, §2, §3
The cell model used comprises normal human epidermal keratinocytes (NHEK). The keratinocytes are cultured in SFM medium with 0.25 ng/ml EGF and 25 μg/ml of pituitary extract at 37° C. and 5% CO2. The keratinocytes are inoculated in 25 cm^2 dishes and precultured in whole SFM medium, and then placed in EGF-free and pituitary extract-free SFM medium. […]
Multiple cDNA “target” labeled sequences were thus prepared for each culture. […] The membrane analysis was performed using the ImageQuant TL software (Image Analysis, Amersham Biosciences) and the data recorded were then processed on Excel. The differential expression of the various genes following the treatment is thus measured by comparison with the corresponding control.

Setting [2] is: 1 μg/ml, listed as 8-hexadecene-1,16-dicarboxylic acid.

Consider `O=C1O[C@H]([C@@H](O)CO)C(O)=C1O` [Ascorbic acid, reference compound], for which, in the test on Cdsn (corneodesmosine) (100 μg/ml), the “Markers for intercorneocytic cohesion (Cdsn): Cdsn expression, multiplicative factor vs control” value was “Cdsn (×1.7)”.
On to `CC(O)C(=O)O` (stereo not shown) [Lactic acid, reference compound], for which the “Markers for the formation of the horny layer (LEP): LEP16 expression, multiplicative factor vs control” value (shortened to “Markers for the formation … vs control”) with LEP16 (100 μg/ml) is recorded as “LEP16 (×1.6)”.
Take `O=C(O)CO` [Glycolic acid, reference compound]: the “Markers for the formation … vs control” value in the test on LEP16 (100 μg/ml) is reported as “LEP16 (×2.6)”. Besides, the “Markers for intercorneocytic cohesion (Cdsn): Cdsn expression, multiplicative factor vs control” value with Cdsn (corneodesmosine) (100 μg/ml) is given as “Cdsn (×1.6)”.
In the case of `O=C(O)CCCCCCCC=CCCCCCCCC(=O)O` [Dioic acid, 8-hexadecene-1,16-dicarboxylic acid], the “Markers for the formation … vs control” value in the test on LEP16 (1 μg/ml) is “LEP16 (×3.0)”; in the test on LEP16 (setting [2]), “capable of stimulating the expression”. Moreover, the figures for the “Re-epithelialization markers: HBEGF expression, multiplicative factor vs control” value in test [1] and in test [1] (listed as 8-hexadecene-1,16-dicarboxylic acid) were “HBEGF (×1.6)” and “capable of stimulating the expression”, respectively. Besides, the figures for the “Markers for intercorneocytic cohesion (Cdsn): Cdsn expression, multiplicative factor vs control” value with Cdsn (corneodesmosine) (1 μg/ml) and in the test on Cdsn (corneodesmosine) (setting [2]) were “Cdsn (×2.4)” and “capable of stimulating the expression”, respectively.

The record behind these values is patent US20070059269A1, “Administration of 8-hexadecene-1,16-dicarboxylic acid for promoting cohesion of the epidermal horny layer” (L'OREAL, priority 2005, published 2007).
